Source: PubChem BioAssay AID248 (DTP/NCI, 2004)
Values joined by “and” are separate entries in the source; they are usually repeats but may differ in a detail not shown here. Equal entries are not always repeated. Inconclusive results and toxic doses are left out. Cut-off read from the data, not from the text of the source: active = T/C of 150% or more; inactive = T/C below 125%.

System: L1210 leukemia ip in BDF1 mice, survival T/C
Assay: NCI In Vivo Anticancer Drug Screen. Data for tumor model L1210 Leukemia (intraperitoneal) in B6D2F1 (BDF1) mice
Conditions: endpoint: mean survival time, higher = longer survival
Summary of the method: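 Survival endpoint. Drug-treated group vs vehicle group, expressed as T divided by C. Tumor passaged by transplantation.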

[1] = dose: 100.0 mg/kg/injection, schedule: Q04DX003 (ip), vehicle: Klucel (hydroxypropylcellulose) (HPC)
[2] = dose: 200.0 mg/kg/injection, schedule: Q04DX003 (ip), vehicle: Klucel (hydroxypropylcellulose) (HPC)
[3] = dose: 400.0 mg/kg/injection, schedule: Q04DX003 (ip), vehicle: Klucel (hydroxypropylcellulose) (HPC)
[4] = dose: 100.0 mg/kg/injection, schedule: Q01DX009 (ip), vehicle: saline with Tween-80
[5] = dose: 100.0 mg/kg/injection, schedule: Q04DX003 (ip), vehicle: saline with Tween-80
[6] = dose: 200.0 mg/kg/injection, schedule: Q01DX009 (ip), vehicle: saline with Tween-80
[7] = dose: 200.0 mg/kg/injection, schedule: Q04DX003 (ip), vehicle: saline with Tween-80
[8] = dose: 400.0 mg/kg/injection, schedule: Q01DX009 (ip), vehicle: saline with Tween-80
[9] = dose: 100.0 mg/kg/injection, schedule: Q04DX002 (ip), vehicle: saline with Tween-80
[10] = dose: 200.0 mg/kg/injection, schedule: Q04DX002 (ip), vehicle: saline with Tween-80
[11] = dose: 50.0 mg/kg/injection, schedule: Q04DX002 (ip), vehicle: Klucel (hydroxypropylcellulose) (HPC)
[12] = dose: 100.0 mg/kg/injection, schedule: Q04DX002 (ip), vehicle: Klucel (hydroxypropylcellulose) (HPC)
[13] = dose: 100.0 mg/kg/injection, schedule: Q04DX003 (ip), vehicle: saline
[14] = dose: 100.0 mg/kg/injection, schedule: Q01DX001 (ip), vehicle: Klucel (hydroxypropylcellulose) (HPC)
[15] = dose: 100.0 mg/kg/injection, schedule: Q01DX009 (ip), vehicle: Klucel (hydroxypropylcellulose) (HPC)
[16] = dose: 200.0 mg/kg/injection, schedule: Q01DX009 (ip), vehicle: Klucel (hydroxypropylcellulose) (HPC)
[17] = dose: 400.0 mg/kg/injection, schedule: Q01DX009 (ip), vehicle: Klucel (hydroxypropylcellulose) (HPC)

Measured: T/C

Fc1c(Cl)c(Cl)c(Cl)c(Cl)c1Cl
inactive: dose: 100.0 mg/kg/injection, schedule: Q01DX009 (ip), vehicle: saline sonified 110 % of control | [1] 96 % of control | dose: 200.0 mg/kg/injection, schedule: Q01DX009 (ip), vehicle: saline sonified 100 % of control | [2] 97 % of control | dose: 400.0 mg/kg/injection, schedule: Q01DX009 (ip), vehicle: saline sonified 95 % of control | [3] 96 % of control

CCOc1nc(=O)n(CC(=O)c2ccc(Cl)s2)cc1F
inactive: [4] 105 % of control | [5] 103 % of control | [6] 90 % of control | [7] 103 % of control | [8] 86 % of control | dose: 400.0 mg/kg/injection, schedule: Q04DX003 (ip), vehicle: saline with Tween-80 94 % of control

CN=C(c1ccc(NC(=O)c2ccc(C(=O)Nc3ccc(C(=NC)N4CCOCC4)cc3)cc2)cc1)N1CCOCC1
inactive: dose: 0.9 mg/kg/injection, schedule: Q01DX Z (ip), vehicle: carboxymethylcellulose (CMC) 86 % of control | dose: 1.87 mg/kg/injection, schedule: Q01DX Z (ip), vehicle: carboxymethylcellulose (CMC) 91 % of control | dose: 3.75 mg/kg/injection, schedule: Q01DX Z (ip), vehicle: carboxymethylcellulose (CMC) 93 % of control | dose: 7.5 mg/kg/injection, schedule: Q01DX Z (ip), vehicle: carboxymethylcellulose (CMC) 91 % of control | dose: 15.0 mg/kg/injection, schedule: Q01DX Z (ip), vehicle: carboxymethylcellulose (CMC) 101 % of control

O=C(Nc1ccc(Cl)cc1[N+](=O)[O-])Oc1cc2ccccc2cc1C(=O)Nc1ccccc1
inactive: [4] 100 % of control and 88 % of control | [9] 93 % of control and 94 % of control | [6] 86 % of control and 87 % of control | [10] 94 % of control and 101 % of control | [8] 93 % of control and 96 % of control | dose: 400.0 mg/kg/injection, schedule: Q04DX002 (ip), vehicle: saline with Tween-80 94 % of control and 90 % of control

CCCN(CCC)CCNCC(Cc1ccccc1)c1ccccc1 (configuration not stated)
inactive: [11] 99 % of control | [12] 99 % of control

Cc1cc(C)[n+](C)c(C)c1
inactive: dose: 12.5 mg/kg/injection, schedule: Q04DX003 (ip), vehicle: saline 96 % of control | dose: 25.0 mg/kg/injection, schedule: Q04DX003 (ip), vehicle: saline 93 % of control | dose: 50.0 mg/kg/injection, schedule: Q04DX003 (ip), vehicle: saline 101 % of control | [13] 93 % of control

O=C(O)/C=C/C(=O)NCc1ccco1
inactive: [4] 98 % of control | [6] 96 % of control | [8] 101 % of control

O=S(=O)(CCCl)c1ccc2ccccc2c1
inactive: dose: 25.0 mg/kg/injection, schedule: Q04DX002 (ip), vehicle: Klucel (hydroxypropylcellulose) (HPC) 100 % of control | [11] 104 % of control | [12] 96 % of control

O=[N+]([O-])c1ccc(O)c(/C=N/Nc2nnc(N/N=C/c3cc([N+](=O)[O-])ccc3O)c3ccccc23)c1
inactive: dose: 50.0 mg/kg/injection, schedule: Q01DX001 (ip), vehicle: carboxymethylcellulose (CMC) 95 % of control | dose: 100.0 mg/kg/injection, schedule: Q01DX001 (ip), vehicle: carboxymethylcellulose (CMC) 93 % of control | dose: 200.0 mg/kg/injection, schedule: Q01DX001 (ip), vehicle: carboxymethylcellulose (CMC) 95 % of control | dose: 400.0 mg/kg/injection, schedule: Q01DX001 (ip), vehicle: carboxymethylcellulose (CMC) 93 % of control

CN(Cc1ccccc1)C(=O)Nc1cccc(C(F)(F)F)c1
inactive: [4] 107 % of control | [6] 98 % of control | [8] 96 % of control

COC(=O)c1ccc[n+](CC(=O)c2ccccc2)c1
inactive: [5] 95 % of control | [7] 88 % of control

COc1ccc(/C=N\NC(=O)N/N=C/c2ccc(OC)c(OC)c2)cc1OC
inactive: dose: 50.0 mg/kg/injection, schedule: Q01DX001 (ip), vehicle: Klucel (hydroxypropylcellulose) (HPC) 90 % of control | [14] 95 % of control

CC(C)C1CC(C)(C)c2cc(O)ccc2O1 (configuration not stated)
inactive: [1] 101 % of control | [2] 105 % of control | [3] 100 % of control

COc1ccc(NC(=S)NN)cc1
inactive: dose: 25.0 mg/kg/injection, schedule: Q01DX009 (ip), vehicle: saline with Tween-80 103 % of control | dose: 50.0 mg/kg/injection, schedule: Q01DX009 (ip), vehicle: saline with Tween-80 89 % of control | [4] 95 % of control

CCCCCCCCC(=O)CC
inactive: dose: 100.0 mg/kg/injection, schedule: Q01DX009 (ip), vehicle: saline 104 % of control | dose: 200.0 mg/kg/injection, schedule: Q01DX009 (ip), vehicle: saline 98 % of control | dose: 400.0 mg/kg/injection, schedule: Q01DX009 (ip), vehicle: saline 94 % of control

CN(C)C(=O)C1C2CCC(C2)C1C(=O)N(C)C (configuration not stated)
inactive: [13] 103 % of control | dose: 200.0 mg/kg/injection, schedule: Q04DX003 (ip), vehicle: saline 96 % of control | dose: 400.0 mg/kg/injection, schedule: Q04DX003 (ip), vehicle: saline 100 % of control

O=C(O)/C=C\C(Cl)(Cl)Cl
inactive: [9] 97 % of control | [10] 93 % of control

CCC(CO)NC(=O)C1C=C2c3cccc4c3c(cn4C)CC2N(C)C1 (configuration not stated)
inactive: dose: 25.0 mg/kg/injection, schedule: Q01DX009 (ip), vehicle: Klucel (hydroxypropylcellulose) (HPC) 94 % of control and 101 % of control | dose: 25.0 mg/kg/injection, schedule: Q04DX003 (ip), vehicle: Klucel (hydroxypropylcellulose) (HPC) 97 % of control | dose: 50.0 mg/kg/injection, schedule: Q01DX009 (ip), vehicle: Klucel (hydroxypropylcellulose) (HPC) 94 % of control and 101 % of control | dose: 50.0 mg/kg/injection, schedule: Q04DX003 (ip), vehicle: Klucel (hydroxypropylcellulose) (HPC) 103 % of control | [15] 111 % of control and 91 % of control | [1] 108 % of control | [16] 120 % of control and 121 % of control | [2] 109 % of control | [17] 120 % of control | [3] 104 % of control

C=CC/C=C/C
inactive: [14] 93 % of control | dose: 200.0 mg/kg/injection, schedule: Q01DX001 (ip), vehicle: Klucel (hydroxypropylcellulose) (HPC) 109 % of control | dose: 400.0 mg/kg/injection, schedule: Q01DX001 (ip), vehicle: Klucel (hydroxypropylcellulose) (HPC) 100 % of control

CC(NC(N)=O)C(=O)O (configuration not stated)
inactive: dose: 100.0 mg/kg/injection, schedule: Q04DX002 (ip), vehicle: saline 89 % of control | dose: 200.0 mg/kg/injection, schedule: Q04DX002 (ip), vehicle: saline 104 % of control | dose: 400.0 mg/kg/injection, schedule: Q04DX002 (ip), vehicle: saline 93 % of control

OCc1ncn[nH]1
inactive: dose: 100.0 mg/kg/injection, schedule: Q01DX001 (ip), vehicle: saline 102 % of control | dose: 200.0 mg/kg/injection, schedule: Q01DX001 (ip), vehicle: saline 95 % of control | dose: 400.0 mg/kg/injection, schedule: Q01DX001 (ip), vehicle: saline 107 % of control

O=c1ccn(Cc2cccc(OCCCc3ccccc3)c2)c(=O)[nH]1
inactive: [15] 96 % of control | [16] 102 % of control | [17] 97 % of control
